Assay in all cases: Post-emergence efficacy, glasshouse pot test
Holding throughout (assay type): in vivo
Details in all cases: 312 h, post-emergence spray, Application Rate 500 g/Ha, evaluated after 13 days, 100=total damage to plant, 0=no damage to plant

Test [1] concerns Chenopodium album (CHEAL). The method, then: (§1) Seeds of a variety of test species were sown in standard soil in pots. After cultivation for 14 days (post-emergence) under controlled conditions in a glasshouse (at 24/16° C., day/night; 14 hours light; 65% humidity), the plants were sprayed with an aqueous spray solution derived from the dissolution of the technical active ingredient formula (I) in a small amount of acetone and a special solvent and emulsifier mixture referred to as IF50 (11.12% Emulsogen EL360 TM+44.44% N-methylpyrrolidone+44.44% Dowanol DPM glycol ether), to create a 50 g/I solution which was then diluted to required concentration using 0.25% or 1% Empicol ESC70 (Sodium lauryl ether sulphate)+1% ammonium sulphate as diluent. The test plants were then grown in a glasshouse under controlled conditions (at 24/16° C., day/night; 14 hours light; 65% humidity) and watered twice daily. After 13 days the test was evaluated (100=total damage to plant; 0=no damage to plant). Ipomoea hederacea (IPOHE), Euphorbia heterophylla (EPHHL), Chenopodium album (CHEAL), Amaranthus palmeri (AMAPA), Lolium perenne (LOLPE), Digitaria sanguinalis (DIGSA), Eleusine indica (ELEIN), Echinochloa crus-galli (ECHCG), Setaria faberi (SETFA)

The subject of test [2] is Echinochloa crus-galli (ECHCG). On the procedure:
as §1

The test system of test [3] is Amaranthus palmeri (AMAPA). The method, then: as §1
The next test concerns Setaria faberi (SETFA). On the procedure:
as §1

Test [4] has as its system Euphorbia heterophylla (EPHHL). The method, then: as §1
Another test deals with Lolium perenne (LOLPE). The method, then: as §1
In test [5] the test system is Digitaria sanguinalis (DIGSA). The method, then: as §1
A further test has as its system Eleusine indica (ELEIN). The method, then:
as §1

Test [6] relates to Ipomoea hederacea (IPOHE). The method, then: as §1

The term pest or weed control denotes how far the test organism was held down. A higher pest or weed control goes with strong suppression.

Consider `O=C(O)CCS(=O)(=O)C[n+]1ccc(-c2ncns2)cc1` [Compound A18, 3-[[4-(1,2,4-thiadiazol-5-yl)pyridin-1-ium-1-yl]methylsulfonyl]propanoic acid 2,2,2-trifluoroacetate], for which the pest or weed control at 500 g/ha in test [1] is 90%; in test [2], 90%; in test [3], 100%; in the test with Setaria faberi (SETFA) it was 100%; in test [4], 60%; in the test on Lolium perenne (LOLPE), 40%. In addition, the pest or weed control at 500 g/ha in test [5] was found to be 100%; with Eleusine indica (ELEIN), 100%; in test [6], 70%.

As to `O=C(O)CS(=O)(=O)C[n+]1ccc(-c2ncns2)cc1` [Compound A19], the pest or weed control at 500 g/ha in test [1] turned out to be 50%; in [2] it was 30%; in [3], 40%; with Setaria faberi (SETFA), 20%; in [4] it was 30%; in the test with Lolium perenne (LOLPE), 20%. The pest or weed control at 500 g/ha in [5] amounted to 30%; in the test on Eleusine indica (ELEIN), 30%; in [6], 10%.

Values taken from patent US20220142164A1, “HERBICIDAL COMPOUNDS” (SYNGENTA CROP PROTECTION AG, priority 2019, published 2022).
